The record followed here is patent publication US20210123061A1, “METHODS AND COMPOSITIONS FOR TREATING INFLAMMATORY DISEASE OR DISORDER” (THE BRIGHAM AND WOMEN'S HOSPITAL, INC., priority 2018, published 2021).

In test [1] the test system is IFN-γ-induced chemokine mRNA. The test can be described thus: Real-time PCR of IFN-γ-induced genes in PBMC-derived macrophages. Format: cell-based, human. Conditions: 1 or 10 μM for two hours, then IFN-γ eight hours, vs DMSO. As for the experimental part:
FIGS. 4A-D show silencing RSK1 suppresses IFN-γ-induced chemokines in human primary macrophages. (FIG. 4A and FIG. 4B) Human PBMC-derived macrophages were treated with control siRNA or RSK1 siRNA followed by treatment with IFN-γ for the indicated time. Total RNA samples were subjected to real-time PCR analysis using the indicated probes and primers. GAPDH was used for normalization. (FIG. 4A) Representative results from one donor. Data are means±SD. (FIG. 4B) Quantification of the area-under-the-curve (AUC) plots of the real-time PCR data in panel (FIG. 4A). Data are means±SE. N=3 donors. *P<0.05 and **P<0.01 indicate significance for AUC of mRNA levels by paired Student's test. (FIG. 4C) Macrophages were treated with DMSO or BI-D1870 (1 or 10 μM) for two hours followed by stimulation with IFN-γ for eight hours. Total RNA samples were subjected to real-time PCR analysis using the indicated probes and primers. GAPDH was used for normalization. Data are means±SE. N=3-4 donors. *P<0.05 and **P<0.01 indicate significance for mRNA levels compared to control (treatment with DMSO and IFN-γ) by Dunnett's comparison test. […] Secreted chemokine levels were measured using ELISA. […]
Real-time PCR. […] The mRNA levels were determined by TaqMan-based real-time PCR reactions (Thermo Fisher Scientific). […] Data were normalized by human GAPDH and then calculated using the delta-delta Ct method.

Another test concerns STAT1-pSer727. The test can be described thus: Anti-STAT1-pSer727 immunoprecipitation with parallel reaction monitoring mass spectrometry. Format: cell-based, human. The conditions noted are these: versus IFN-γ (plus DMSO) alone. As for the experimental part:
FIGS. 3A-3F show RSK1 is activated through JAK signaling and its inhibition suppresses STAT1 phosphorylation at Ser727 in human primary macrophages in response to IFN-γ. (FIG. 3A) PBMC-derived macrophages were pre-treated with DMSO or 10 μM a pan-JAK inhibitor, pyridone-6, for two hours and then stimulated with IFN-γ for indicated time under serum starvation. Cell lysates were subjected to immunoprecipitation with normal IgG or anti-RSK1 followed by immunoblot analysis using the indicated antibodies. WCL, whole cell lysate. N=3 donors. […] (FIG. 3D) Densitometric based quantification (ImageJ Software) of STAT1-pSer727 in panel (FIG. 3C) plus three additional donors. […] (FIG. 3F) Quantification of PRM ions (MS/MS ions) of the indicated STAT1 peptide harboring a phosphorylation at Ser727 (and oxidized methionine, m), generated from the digest of panel […].
Anti-STAT1-pSer727 IPs—The STAT1 peptide with phosphorylation at Ser727 was detected on the Orbitrap Fusion Lumos. […]
Anti-STAT1-pSer727 IPs—The three most abundant fragment ions of the target peptide (LQTTDNLLPmsPEEFDEVSR (SEQ ID NO: 5)-m10-oxidation, s11-phosphorylation, 806.3575 m/z, z=3) as annotated by SEQUEST (PD2.1) were used for quantification: y12^2+, 759.79455 m/z; c12^+, 1424.64911 m/z; b8^+, 899.48327 m/z. AUC of each fragment was calculated using the Skyline software (https://skyline.gs.washington.edu). […]

Turning to `CC(C)CCN1c2nc(Nc3cc(F)c(O)c(F)c3)ncc2N(C)C(=O)C1C` (stereo not drawn) [BI-D1870], the “mRNA levels of pro-inflammatory chemokines such as CCL2/MCP-1” value in test [1] is reported as “attenuated”. Further, in the test on STAT1-pSer727, the STAT1-pSer727 recovered post-immunoprecipitation entry is on record as “less” and the “pSer727 site-specific signal, PRM of three EThcD fragment ions” value is on record as “decrease in signal”.
